Consider seven compounds from the Kinase Knowledgebase extract (Sharma et al. 2016).

This assay addresses CDK2 (human) (UniProt P24941). Briefly: Enzyme Assay.
One may read the IC50 as the concentration that inhibits the measured activity by half. Low readings indicate greater potency, high ones weaker potency. The compound `O=c1[nH]c2cc(C(F)(F)F)ccc2cc1-c1csc(-c2ccc3c(c2)OCO3)n1` yielded a concentration for half-maximal inhibition (IC50) of less than 1000 nM.
The figure for `CC(C)N(C)Cc1ccc2cc(-c3csc(-c4ccncc4)n3)c(=O)[nH]c2c1` is less than 1000 nM.
Regarding `O=c1[nH]c2ccccc2c(O)c1-c1csc(-c2ccncc2)n1`, the half-maximal inhibitory concentration (IC50) was less than 1000 nM.
The figure for `C[C@@H]1CN(Cc2ccc3cc(-c4csc(CS(=O)(=O)c5ccccc5)n4)c(=O)[nH]c3c2)C[C@H](C)N1` is less than 1000 nM; for `O=c1[nH]c2ccccc2cc1-c1csc(-c2ccc(O)cc2)n1` it is less than 1000 nM; for `CC(C)C(CO)NCc1ccc2cc(-c3csc(-c4ccncc4)n3)c(=O)[nH]c2c1` (configuration not stated) it is less than 1000 nM.
The figure for `O=c1[nH]c2cc(OCCN3CCOCC3)ccc2cc1-c1csc(-c2ccncc2)n1` is less than 1000 nM.
